From EP0908457B1, “3-(1,2-benzisothiazol- and isoxazol-5-Y1)-2,4(1H,3H)-pyrimidinedione or thione and 3-(1,2-benzisothiazol- and isoxazol-5-y1)-4(3H)-pyrimidinone or thione herbicidal agents” (BASF AKTIENGESELLSCHAFT, priority 1997, dated 1999)

Legend:
[1] = system: Echinochloa oryzoides (Ard.) Fritsch.; experiment: Preemergence weed control under flooded paddy conditions, ECHORC (Watergrass (Calif.)); type: in vivo; conditions: flooded paddy; for herbicidal effect rating, ECHORC: rated three to four weeks after treatment; for ECHORC: herbicidal effect rating 0-9, three to four weeks after treatment; on herbicidal effect rating, ECHORC: meaning of each grade not given here
Cyperus iria = experiment: Preemergence weed control under flooded paddy conditions, CYPIR (Rice Flatsedge); type: in vivo; conditions: flooded paddy; for herbicidal effect rating, CYPIR: rated three to four weeks after treatment; for CYPIR: herbicidal effect rating 0-9, three to four weeks after treatment; on herbicidal effect rating, CYPIR: meaning of each grade not given here
[2] = system: Cyperus serotinus, Rottb.; experiment: Preemergence weed control under flooded paddy conditions, CYPSE (Flatsedge); type: in vivo; conditions: for herbicidal effect rating, CYPSE: rated three to four weeks after treatment; on herbicidal effect rating, CYPSE: meaning of each grade not given here
[3] = system: Monochoria vaginalis, Presl.; experiment: Preemergence weed control under flooded paddy conditions, MOOVA (Monochoria); type: in vivo; conditions: flooded paddy; for herbicidal effect rating, MOOVA: rated three to four weeks after treatment; for MOOVA: herbicidal effect rating 0-9, three to four weeks after treatment; on herbicidal effect rating, MOOVA: meaning of each grade not given here
Sagittaria pygmaea, L. = experiment: Preemergence weed control under flooded paddy conditions, SAGPY (Arrowhead (Pygmaea)); type: in vivo; conditions: flooded paddy; for herbicidal effect rating, SAGPY: rated three to four weeks after treatment; for SAGPY: herbicidal effect rating 0-9, three to four weeks after treatment; on herbicidal effect rating, SAGPY: meaning of each grade not given here
[4] = system: Oryza sativa, (L.) Tebonnet; experiment: Rice tolerance to post-transplant applications under flooded paddy conditions (Example 187), ORYSAT (Rice, Tebonnet); conditions: for herbicidal effect rating, ORYSAT (rice tolerance): rated three to four weeks after treatment; for ORYSAT: herbicidal effect rating 0-9, three to four weeks after treatment
[5] = 0.0313 kg/ha, preemergence weeds
[6] = 0.0625 kg/ha, preemergence weeds
[7] = 0.1250 kg/ha, preemergence weeds
[8] = 0.2500 kg/ha, preemergence weeds
[9] = 0.0320 kg/ha, preemergence weeds
[10] = 0.0620 kg/ha, preemergence weeds

## Cc1ccc(OCC(=O)OC(C)(C)C)c(-c2nsc3ccc(-n4c(=O)cc(C(F)(F)F)n(C)c4=O)cc23)c1 [Example 68, tert -Butyl {{2-{5-[3,6-dihydro-3-methyl-2,6-dioxo-4-(trifluoromethyl)-1(2H)-pyrimidinyl]-1,2-benzisothiazol-3-yl}-p-tolyl}oxy}acetate]
[1]; 0.0313 kg/ha, preemergence
  herbicidal effect rating, ECHORC: 7.5
[1]; 0.0625 kg/ha, preemergence
  herbicidal effect rating, ECHORC: 9.0
[1]; 0.1250 kg/ha, preemergence
  herbicidal effect rating, ECHORC: 9.0
[1]; 0.2500 kg/ha, preemergence
  herbicidal effect rating, ECHORC: 9.0
Cyperus iria; 0.0313 kg/ha, preemergence
  herbicidal effect rating, CYPIR: 7.0
Cyperus iria; 0.0625 kg/ha, preemergence
  herbicidal effect rating, CYPIR: 9.0
Cyperus iria; 0.1250 kg/ha, preemergence
  herbicidal effect rating, CYPIR: 9.0
Cyperus iria; 0.2500 kg/ha, preemergence
  herbicidal effect rating, CYPIR: 9.0
[2]; 0.0313 kg/ha, preemergence
  herbicidal effect rating, CYPSE: 6.0
[2]; 0.0625 kg/ha, preemergence
  herbicidal effect rating, CYPSE: 7.0
[2]; 0.2500 kg/ha, preemergence
  herbicidal effect rating, CYPSE: 7.0
[3]; 0.0313 kg/ha, preemergence
  herbicidal effect rating, MOOVA: 9.0
[3]; 0.0625 kg/ha, preemergence
  herbicidal effect rating, MOOVA: 9.0
[3]; 0.1250 kg/ha, preemergence
  herbicidal effect rating, MOOVA: 9.0
[3]; 0.2500 kg/ha, preemergence
  herbicidal effect rating, MOOVA: 9.0
Sagittaria pygmaea, L.; 0.0313 kg/ha, preemergence
  herbicidal effect rating, SAGPY: 0.0
Sagittaria pygmaea, L.; 0.0625 kg/ha, preemergence
  herbicidal effect rating, SAGPY: 0.0
Sagittaria pygmaea, L.; 0.1250 kg/ha, preemergence
  herbicidal effect rating, SAGPY: 2.0
Sagittaria pygmaea, L.; 0.2500 kg/ha, preemergence
  herbicidal effect rating, SAGPY: 2.0
[4]; 0.0313 kg/ha
  herbicidal effect rating, ORYSAT (rice tolerance): 0.5
[4]; 0.0625 kg/ha
  herbicidal effect rating, ORYSAT (rice tolerance): 1.0
[4]; 0.1250 kg/ha
  herbicidal effect rating, ORYSAT (rice tolerance): 1.5
[4]; 0.2500 kg/ha
  herbicidal effect rating, ORYSAT (rice tolerance): 1.0

## CC(C)=CCOC(=O)COc1ccc(C)cc1-c1nsc2ccc(-n3c(=O)cc(C(F)(F)F)n(C)c3=O)cc12 [Example 187, 3-Methyl-2-butenyl {{2-{5-[3,6-dihydro-3-methyl-2,6-dioxo-4-(trifluoromethyl)-1(2H)-pyrimidinyl]-1,2-benzisothiazol-3-yl}-p-tolyl}oxy}acetate]
[1]; [5]
  herbicidal effect rating, ECHORC: 0.0
[1]; [6]
  herbicidal effect rating, ECHORC: 2.0
[1]; [7]
  herbicidal effect rating, ECHORC: 6.0
[1]; [8]
  herbicidal effect rating, ECHORC: 9.0
Cyperus iria; [5]
  herbicidal effect rating, CYPIR: 0.0
Cyperus iria; [6]
  herbicidal effect rating, CYPIR: 0.0
Cyperus iria; [7]
  herbicidal effect rating, CYPIR: 2.0
Cyperus iria; [8]
  herbicidal effect rating, CYPIR: 4.0
[2]; [5]
  herbicidal effect rating, CYPSE: 0.0
[2]; [6]
  herbicidal effect rating, CYPSE: 0.0
[2]; [7]
  herbicidal effect rating, CYPSE: 0.0
[2]; [8]
  herbicidal effect rating, CYPSE: 0.0
[3]; [5]
  herbicidal effect rating, MOOVA: 8.0
[3]; [6]
  herbicidal effect rating, MOOVA: 9.0
[3]; [7]
  herbicidal effect rating, MOOVA: 9.0
[3]; [8]
  herbicidal effect rating, MOOVA: 9.0
Sagittaria pygmaea, L.; [5]
  herbicidal effect rating, SAGPY: 0.0
Sagittaria pygmaea, L.; [6]
  herbicidal effect rating, SAGPY: 0.0
Sagittaria pygmaea, L.; [7]
  herbicidal effect rating, SAGPY: 0.0
Sagittaria pygmaea, L.; [8]
  herbicidal effect rating, SAGPY: 0.0
[4]; 0.0313 kg/ha
  herbicidal effect rating, ORYSAT (rice tolerance): 2.0
[4]; 0.0625 kg/ha
  herbicidal effect rating, ORYSAT (rice tolerance): 3.0
[4]; 0.1250 kg/ha
  herbicidal effect rating, ORYSAT (rice tolerance): 3.0
[4]; 0.2500 kg/ha
  herbicidal effect rating, ORYSAT (rice tolerance): 6.0

## Cn1c(C(F)(F)F)cc(=O)n(-c2ccc3snc(C(=O)SCc4ccccc4)c3c2)c1=O [Example 421, 1,2-Benzisothiazole-3-thiocarboxylic acid, 5-[3,6-dihydro-3-methyl-2,6-dioxo-4-(trifluoromethyl)-1(2H)-pyrimidinyl]-, S-benzyl ester]
[1]; [9]
  ECHORC: 5.0
[1]; [10]
  ECHORC: 5.0
[1]; [7]
  ECHORC: 7.0
[1]; [8]
  ECHORC: 9.0
Cyperus iria; [9]
  CYPIR: 2.0
Cyperus iria; [10]
  CYPIR: 6.0
Cyperus iria; [7]
  CYPIR: 8.0
Cyperus iria; [8]
  CYPIR: 9.0
[2]; 0.2500 kg/ha, preemergence weeds, herbicidal effect rating 0-9, three to four weeks after treatment
  CYPSE: 4.0
[3]; [9]
  MOOVA: 5.0
[3]; [10]
  MOOVA: 6.0
[3]; [7]
  MOOVA: 7.0
[3]; [8]
  MOOVA: 9.0
Sagittaria pygmaea, L.; [9]
  SAGPY: 0.0
Sagittaria pygmaea, L.; [10]
  SAGPY: 0.0
Sagittaria pygmaea, L.; [7]
  SAGPY: 0.0
Sagittaria pygmaea, L.; [8]
  SAGPY: 2.0
[4]; 0.0320 kg/ha
  ORYSAT: 0.0
[4]; 0.0620 kg/ha
  ORYSAT: 0.0
[4]; 0.1250 kg/ha
  ORYSAT: 0.0
[4]; 0.2500 kg/ha
  ORYSAT: 2.0

## Cc1ccc(O)c(-c2noc3ccc(-n4c(=O)cc(C(F)(F)F)n(C)c4=O)c(Cl)c23)c1 [Example 41, 3-[4-Chloro-3-(6-hydroxy-m-tolyl)-1,2-benzisoxazol-5-yl]-1-methyl-6-(trifluoromethyl)-2,4(1H,3H)-pyrimidinedione]
[1]; 0.0313 kg/ha, preemergence
  herbicidal effect rating, ECHORC: 0.0
[1]; 0.0625 kg/ha, preemergence
  herbicidal effect rating, ECHORC: 0.0
[1]; 0.1250 kg/ha, preemergence
  herbicidal effect rating, ECHORC: 2.0
[1]; 0.2500 kg/ha, preemergence
  herbicidal effect rating, ECHORC: 6.0
Cyperus iria; 0.0313 kg/ha, preemergence
  herbicidal effect rating, CYPIR: 0.0
Cyperus iria; 0.0625 kg/ha, preemergence
  herbicidal effect rating, CYPIR: 0.0
Cyperus iria; 0.1250 kg/ha, preemergence
  herbicidal effect rating, CYPIR: 1.0
Cyperus iria; 0.2500 kg/ha, preemergence
  herbicidal effect rating, CYPIR: 2.0
[2]; 0.0313 kg/ha, preemergence
  herbicidal effect rating, CYPSE: 0.0
[2]; 0.0625 kg/ha, preemergence
  herbicidal effect rating, CYPSE: 0.0
[2]; 0.1250 kg/ha, preemergence
  herbicidal effect rating, CYPSE: 0.0
[2]; 0.2500 kg/ha, preemergence
  herbicidal effect rating, CYPSE: 0.0
[3]; 0.0313 kg/ha, preemergence
  herbicidal effect rating, MOOVA: 0.0
[3]; 0.0625 kg/ha, preemergence
  herbicidal effect rating, MOOVA: 2.0
[3]; 0.1250 kg/ha, preemergence
  herbicidal effect rating, MOOVA: 4.0
[3]; 0.2500 kg/ha, preemergence
  herbicidal effect rating, MOOVA: 9.0
Sagittaria pygmaea, L.; 0.0313 kg/ha, preemergence
  herbicidal effect rating, SAGPY: 0.0
Sagittaria pygmaea, L.; 0.0625 kg/ha, preemergence
  herbicidal effect rating, SAGPY: 0.0
Sagittaria pygmaea, L.; 0.1250 kg/ha, preemergence
  herbicidal effect rating, SAGPY: 0.0
Sagittaria pygmaea, L.; 0.2500 kg/ha, preemergence
  herbicidal effect rating, SAGPY: 0.0
[4]; 0.0313 kg/ha
  herbicidal effect rating, ORYSAT (rice tolerance): 0.0
[4]; 0.0625 kg/ha
  herbicidal effect rating, ORYSAT (rice tolerance): 0.0
[4]; 0.1250 kg/ha
  herbicidal effect rating, ORYSAT (rice tolerance): 0.0
[4]; 0.2500 kg/ha
  herbicidal effect rating, ORYSAT (rice tolerance): 0.0
